Measured values published in ChEMBL document CHEMBL1201862, “PubChem BioAssay data set” (2004).
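Where inhibition never reached the appropriate level, the endpoint shown equals the highest concentration tested. Otherwise, values were interpolated linearly from a five-concentration, 48-hour dose response in 96-well plates. GI50 marks 50% less growth.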 The source made the active and inactive calls. No stated cut-off is given here; in the data, active = GI50 up to about 1.1 µM and inactive = higher.

Key:
Test in all cases: growth of human tumour cells (NCI), 48 h
A498 = system: A498
CCRF-CEM = system: CCRF-CEM
HCC 2998 = system: HCC 2998
HCT-15 = system: HCT-15
HOP-92 = system: HOP-92
IGROV-1 = system: IGROV-1
LOX IMVI = system: LOX IMVI
NCI-H226 = system: NCI-H226
NCI-H23 = system: NCI-H23
OVCAR-3 = system: OVCAR-3
RXF 393 = system: RXF 393
SF-539 = system: SF-539
SK-MEL-28 = system: SK-MEL-28
SK-MEL-2 = system: SK-MEL-2
SK-MEL-5 = system: SK-MEL-5
SK-OV-3 = system: SK-OV-3
SNB-75 = system: SNB-75
SW-620 = system: SW-620
U-251 = system: U-251
UACC-257 = system: UACC-257

Structure (SMILES)	GI50 (A498)	GI50 (CCRF-CEM)	GI50 (HCC 2998)	GI50 (HCT-15) [µM]	GI50 (HOP-92)	GI50 (IGROV-1)	GI50 (LOX IMVI)	GI50 (NCI-H226)	GI50 (NCI-H23)	GI50 (OVCAR-3)	GI50 (RXF 393)	GI50 (SF-539)	GI50 (SK-MEL-28)	GI50 (SK-MEL-2)	GI50 (SK-MEL-5)	GI50 (SK-OV-3)	GI50 (SNB-75)	GI50 (SW-620)	GI50 (U-251)	GI50 (UACC-257)
COc1ccc2[nH]c3c(C)c4ccncc4c(C)c3c2c1	0.504 µM (active)	0.0982 µM (active)	1.92 µM (inactive)	0.22	0.23 µM (active)	0.289 µM (active)	0.251 µM (active)	1.13 µM (inactive)	0.34 µM (active)	0.402 µM (active)	0.1 µM (active)	0.409 µM (active)	2.09 µM (inactive)	1.86 µM (inactive)	1.26 µM (inactive)	0.75 µM (active)	1.17 µM (inactive)	0.0918 µM (active)	0.513 µM (active)	1.85 µM (inactive)
COC1C(O)C(n2ncc3c(SC)nc(SC)nc32)OC1C(O)CO (stereo not given)	> 100 µM (inactive)	> 100 µM (inactive)	> 100 µM (inactive)	> 100	> 100 µM (inactive)	> 100 µM (inactive)	> 100 µM (inactive)	> 100 µM (inactive)	> 100 µM (inactive)	> 100 µM (inactive)	> 100 µM (inactive)	> 100 µM (inactive)	> 100 µM (inactive)	> 100 µM (inactive)	> 100 µM (inactive)	> 100 µM (inactive)	> 100 µM (inactive)	> 100 µM (inactive)	> 100 µM (inactive)	> 37.6 µM (inactive)
CC1=NN(C(=O)c2ccccc2O)C(=O)/C1=C/c1c(O)ccc2ccccc12	2.44 µM (inactive)	0.312 µM (active)	12.9 µM (inactive)	0.48	1.96 µM (inactive)	1.22 µM (inactive)	0.625 µM (active)	1.53 µM (inactive)	1.43 µM (inactive)	0.201 µM (active)	0.787 µM (active)	0.804 µM (active)	1.69 µM (inactive)	1.14 µM (inactive)	1.19 µM (inactive)	0.741 µM (active)	2.42 µM (inactive)	0.863 µM (active)	0.982 µM (active)	2.47 µM (inactive)
Cc1ccc(C#CS(=O)(=O)C(F)(F)F)cc1	> 100 µM (inactive)	> 100 µM (inactive)	> 100 µM (inactive)	> 100	> 100 µM (inactive)	> 100 µM (inactive)	> 31.6 µM (inactive)	> 89.7 µM (inactive)	> 100 µM (inactive)	> 100 µM (inactive)	> 100 µM (inactive)	> 100 µM (inactive)	> 100 µM (inactive)	> 100 µM (inactive)	> 100 µM (inactive)	> 100 µM (inactive)	> 100 µM (inactive)	> 100 µM (inactive)	> 100 µM (inactive)	> 100 µM (inactive)
COc1ccc(C2c3cc4c(cc3OC(NCCO)C2C)OCO4)cc1 (stereo not given)	17.3 µM (inactive)	21.2 µM (inactive)	26.5 µM (inactive)	17.7	34.3 µM (inactive)	28.8 µM (inactive)	23.3 µM (inactive)	28.2 µM (inactive)	35.8 µM (inactive)	17.8 µM (inactive)	23.2 µM (inactive)	20 µM (inactive)	25.1 µM (inactive)	19.3 µM (inactive)	19.8 µM (inactive)	38.1 µM (inactive)	19.6 µM (inactive)	34.4 µM (inactive)	21.2 µM (inactive)	21 µM (inactive)
O=C1NC(=O)C(CCO)(c2ccccc2)C(=O)N1	> 100 µM (inactive)	> 100 µM (inactive)	> 100 µM (inactive)	> 100	> 100 µM (inactive)	> 100 µM (inactive)	> 31.6 µM (inactive)	> 100 µM (inactive)	> 100 µM (inactive)	> 100 µM (inactive)	> 100 µM (inactive)	> 100 µM (inactive)	> 100 µM (inactive)	> 100 µM (inactive)	> 100 µM (inactive)	> 100 µM (inactive)	> 100 µM (inactive)	> 100 µM (inactive)	> 100 µM (inactive)	> 100 µM (inactive)
N#CC1=C(O)NC(O)=C(C#N)C1c1c(Cl)cccc1Cl	23.2 µM (inactive)	> 100 µM (inactive)	7.93 µM (inactive)	20.4	15.8 µM (inactive)	40.6 µM (inactive)	15.8 µM (inactive)	17.9 µM (inactive)	29.4 µM (inactive)	32.9 µM (inactive)	7.8 µM (inactive)	20 µM (inactive)	22.2 µM (inactive)	18.8 µM (inactive)	27.3 µM (inactive)	23.6 µM (inactive)	11.7 µM (inactive)	37.2 µM (inactive)	32.7 µM (inactive)	35.2 µM (inactive)
O=[N+]([O-])c1cccc2nccc(NCC(O)CO)c12 (stereo not given)	7.66 µM (inactive)	13.3 µM (inactive)	13.1 µM (inactive)	8.85	20.6 µM (inactive)	16.1 µM (inactive)	21.7 µM (inactive)	12.2 µM (inactive)	16 µM (inactive)	15.5 µM (inactive)	11.6 µM (inactive)	17.7 µM (inactive)	15.7 µM (inactive)	11.4 µM (inactive)	13.1 µM (inactive)	25.4 µM (inactive)	22.8 µM (inactive)	14.5 µM (inactive)	14.6 µM (inactive)	15.2 µM (inactive)
CCOC(=O)c1c[nH]c2cc3c(cc2c1=O)CCS3(=O)=O.CCOC(=O)c1c[nH]c2ccc3c(c2c1=O)S(=O)(=O)CC3	> 100 µM (inactive)	> 100 µM (inactive)	> 100 µM (inactive)	> 100	> 100 µM (inactive)	> 100 µM (inactive)	> 100 µM (inactive)	62.4 µM (inactive)	> 100 µM (inactive)	> 100 µM (inactive)	> 100 µM (inactive)	> 100 µM (inactive)	> 100 µM (inactive)	> 100 µM (inactive)	> 100 µM (inactive)	> 100 µM (inactive)	> 100 µM (inactive)	> 100 µM (inactive)	> 100 µM (inactive)	> 100 µM (inactive)
CC(C)(C)/N=c1/n(C(C)(C)C)oc(=O)n1C(C)(C)C	> 100 µM (inactive)	> 100 µM (inactive)	> 100 µM (inactive)	> 100	> 100 µM (inactive)	> 100 µM (inactive)	> 100 µM (inactive)	> 100 µM (inactive)	81.1 µM (inactive)	> 100 µM (inactive)	> 100 µM (inactive)	> 100 µM (inactive)	> 100 µM (inactive)	> 100 µM (inactive)	> 100 µM (inactive)	> 100 µM (inactive)	99.5 µM (inactive)	> 100 µM (inactive)	> 100 µM (inactive)	> 100 µM (inactive)
